Experimental data: patent publication US8859574B2 (IRM LLC, priority 2008, dated 2014)

Biological target: T1, IGF-1R Ba/F3 (Homo sapiens, UniProt P08069)
T1 construct: fused on or other part: TEL- (or BCR-) IGF-1R in Ba/F3: the kinase part holds the site
Assay: Ba/F3 Cell Viability Inhibition Assay (IGF-1R Ba/F3)
Format: cell-based, murine
Conditions: Tel-TK transformed Ba/F3 cells, 48 hours, Britelite luminescence
Procedure, shortened: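 IL-3-independent murine Ba/F3 cells transformed with a TEL/BCR-fused IGF-1R kinase were seeded at 3750 cells/well and exposed to serially diluted compound for 48 h at 37 °C. Viability was read by Britelite luminescence. IC50 is the concentration giving 50% of DMSO-control viability, from a logistic fit.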

T1 sequence (P08069 999-1274 limits assumed): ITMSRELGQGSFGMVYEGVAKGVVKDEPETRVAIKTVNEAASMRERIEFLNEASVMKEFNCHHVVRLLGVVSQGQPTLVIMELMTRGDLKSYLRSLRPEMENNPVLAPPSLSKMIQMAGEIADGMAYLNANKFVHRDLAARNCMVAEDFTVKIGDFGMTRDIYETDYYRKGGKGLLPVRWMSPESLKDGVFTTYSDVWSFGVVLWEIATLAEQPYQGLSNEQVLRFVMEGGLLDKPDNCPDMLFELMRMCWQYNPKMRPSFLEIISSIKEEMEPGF

Compound | IC50 [µM]
Cc1cc(Nc2nc(Nc3cc(C)c(C4CCN(C(=O)CN5CCOCC5)CC4)cc3F)ncc2Cl)n[nH]1 [Compound 97, 1-(4-(4-(5-chloro-4-(5-methyl-1H-pyrazol-3-ylamino)pyrimidin-2-ylamino)-5-fluoro-2-methylphenyl)piperidin-1-yl)-2-morpholinoethanone] | 0.02
Cc1cc(Nc2nc(Nc3cc(C)c(C4CCN(C(=O)CN5CCC5)CC4)cc3F)ncc2Cl)n[nH]1 [Compound 98, 2-(azetidin-1-yl)-1-(4-(4-(5-chloro-4-(5-methyl-1H-pyrazol-3-ylamino)pyrimidin-2-ylamino)-5-fluoro-2-methylphenyl)piperidin-1-yl)ethanone] | 0.064
Cc1cc(Nc2nc(Nc3cc(C)c(C4CCN(C(=O)CN5CCCC5)CC4)cc3F)ncc2Cl)n[nH]1 [Compound 99, 1-(4-(4-(5-chloro-4-(5-methyl-1H-pyrazol-3-ylamino)pyrimidin-2-ylamino)-5-fluoro-2-methylphenyl)piperidin-1-yl)-2-(pyrrolidin-1-yl)ethanone] | 0.038
Cc1cc(Nc2nc(Nc3cc(C)c(C4CCN(C(=O)Cn5cccc5)CC4)cc3F)ncc2Cl)n[nH]1 [Compound 100, 1-(4-(4-(5-chloro-4-(5-methyl-1H-pyrazol-3-ylamino)pyrimidin-2-ylamino)-5-fluoro-2-methylphenyl)piperidin-1-yl)-2-(1H-pyrrol-1-yl)ethanone] | 0.025
Cc1cc(Nc2nc(Nc3cc(C)c(C4CCN(C(=O)CN5CCCCC5)CC4)cc3C)ncc2Cl)n[nH]1 [Compound 101, 1-(4-(4-(5-chloro-4-(5-methyl-1H-pyrazol-3-ylamino)pyrimidin-2-ylamino)-2,5-dimethylphenyl)piperidin-1-yl)-2-(piperidin-1-yl)ethanone] | 0.007
Cc1cc(Nc2nc(Nc3cc(C)c(C4CCN(C(=O)CN5CCOCC5)CC4)cc3C)ncc2Cl)n[nH]1 [Compound 102, 1-(4-(4-(5-chloro-4-(5-methyl-1H-pyrazol-3-ylamino)pyrimidin-2-ylamino)-2,5-dimethylphenyl)piperidin-1-yl)-2-morpholinoethanone] | 0.009
Cc1cc(Nc2nc(Nc3cc(C)c(C4CCN(C(=O)CN5C(C)CCCC5C)CC4)cc3C)ncc2Cl)n[nH]1 (stereo not shown) [Compound 103, 1-(4-(4-(5-chloro-4-(5-methyl-1H-pyrazol-3-ylamino)pyrimidin-2-ylamino)-2,5-dimethylphenyl)piperidin-1-yl)-2-(2,6-dimethylpiperidin-1-yl)ethanone] | 0.009
Cc1cc(Nc2nc(Nc3cc(C)c(C4CCN(C(=O)CN5C(C)(C)CCCC5(C)C)CC4)cc3C)ncc2Cl)n[nH]1 [Compound 104, 1-(4-(4-(5-chloro-4-(5-methyl-1H-pyrazol-3-ylamino)pyrimidin-2-ylamino)-2,5-dimethylphenyl)piperidin-1-yl)-2-(2,2,6,6-tetramethylpiperidin-1-yl)ethanone] | 0.018
Cc1cc(Nc2nc(Nc3cc(C)c(C4CCN(C(=O)CN5CCN(C)CC5)CC4)cc3F)ncc2Cl)n[nH]1 [Compound 105, 1-(4-(4-(5-chloro-4-(5-methyl-1H-pyrazol-3-ylamino)pyrimidin-2-ylamino)-5-fluoro-2-methylphenyl)piperidin-1-yl)-2-(4-methylpiperazin-1-yl)ethanone] | 0.051
COCC(=O)N1CCC(c2cc(C)c(Nc3ncc(Cl)c(Nc4cc(C)[nH]n4)n3)cc2C)CC1 [Compound 106, 1-(4-(4-(5-chloro-4-(5-methyl-1H-pyrazol-3-ylamino)pyrimidin-2-ylamino)-2,5-dimethylphenyl)piperidin-1-yl)-2-methoxyethanone] | 0.002
CC(=O)NCC(=O)N1CCC(c2cc(F)c(Nc3ncc(Cl)c(Nc4cc(C)[nH]n4)n3)cc2C)CC1 [Compound 107, N-(2-(4-(4-(5-chloro-4-(5-methyl-1H-pyrazol-3-ylamino)pyrimidin-2-ylamino)-5-fluoro-2-methylphenyl)piperidin-1-yl)-2-oxoethyl)acetamide] | 0.057
Cc1cc(Nc2nc(Nc3cc(C)c(C4CCN(C(=O)OCCN(C)C)CC4)cc3F)ncc2Cl)n[nH]1 [Compound 108, (dimethylamino)ethyl 4-(4-(5-chloro-4-(5-methyl-1H-pyrazol-3-ylamino)pyrimidin-2-ylamino)-5-fluoro-2-methylphenyl)piperidine-1-carboxylate] | 0.053
Cc1cc(Nc2nc(Nc3cc(C)c(C4CCN(C(=O)NCCN(C)C)CC4)cc3F)ncc2Cl)n[nH]1 [Compound 109, 4-(4-(5-chloro-4-(5-methyl-1H-pyrazol-3-ylamino)pyrimidin-2-ylamino)-5-fluoro-2-methylphenyl)-N-(2-(dimethylamino)ethyl)piperidine-1-carboxamide] | 0.06
CC(=O)N1CCC(c2cc(C)c(Nc3ncc(Cl)c(Nc4cc(C)[nH]n4)n3)cc2C)CC1 [Compound 110, 1-(4-(4-(5-chloro-4-(5-methyl-1H-pyrazol-3-ylamino)pyrimidin-2-ylamino)-2,5-dimethylphenyl)piperidin-1-yl)ethanone] | 0.013
Cc1cc(Nc2nc(Nc3cc(C)c(C4CCN(C(=O)N5CCOCC5)CC4)cc3F)ncc2Cl)n[nH]1 [Compound 111, (4-(4-(5-chloro-4-(5-methyl-1H-pyrazol-3-ylamino)pyrimidin-2-ylamino)-5-fluoro-2-methylphenyl)piperidin-1-yl)(morpholino)methanone] | 0.008
Cc1cc(Nc2nc(Nc3cc(C)c(C4CCN(C(=O)N5CCN(C)CC5)CC4)cc3F)ncc2Cl)n[nH]1 [Compound 112, (4-(4-(5-chloro-4-(5-methyl-1H-pyrazol-3-ylamino)pyrimidin-2-ylamino)-5-fluoro-2-methylphenyl)piperidin-1-yl)(4-methylpiperazin-1-yl)methanone] | 0.021
Cc1cc(Nc2nc(Nc3cc(C)c(C4CCN(C(=O)N5CCNC5=O)CC4)cc3C)ncc2Cl)n[nH]1 [Compound 113, 1-(4-(4-(5-chloro-4-(5-methyl-1H-pyrazol-3-ylamino)pyrimidin-2-ylamino)-2,5-dimethylphenyl)piperidine-1-carbonyl)imidazolidin-2-one] | 0.013
CC(=O)N1CCC(C(=O)N2CCC(c3cc(F)c(Nc4ncc(Cl)c(Nc5cc(C)[nH]n5)n4)cc3C)CC2)CC1 [Compound 114] | 0.048
Cc1cc(Nc2nc(Nc3cc(C)c(C4CCN(C(=O)C5CCNCC5)CC4)cc3F)ncc2Cl)n[nH]1 [Compound 115, (4-(4-(5-chloro-4-(5-methyl-1H-pyrazol-3-ylamino)pyrimidin-2-ylamino)-5-fluoro-2-methylphenyl)piperidin-1-yl)(piperidin-4-yl)methanone] | 1.57
Cc1cc(Nc2nc(Nc3cc(C)c(C4CCN(C(=O)[C@@H]5CCCN5)CC4)cc3F)ncc2Cl)n[nH]1 [Compound 116, (S)-(4-(4-(5-chloro-4-(5-methyl-1H-pyrazol-3-ylamino)pyrimidin-2-ylamino)-5-fluoro-2-methylphenyl)piperidin-1-yl)(pyrrolidin-2-yl)methanone] | 0.137
Cc1cc(Nc2nc(Nc3cc(C)c(C4CCN(C(=O)C5CN(C)C5)CC4)cc3F)ncc2Cl)n[nH]1 [Compound 117, (4-(4-(5-chloro-4-(5-methyl-1H-pyrazol-3-ylamino)pyrimidin-2-ylamino)-5-fluoro-2-methylphenyl)piperidin-1-yl)(1-methylazetidin-3-yl)methanone] | 0.099
Cc1cc(Nc2nc(Nc3cc(C)c(C4CCN(C(=O)C5CCN(C)CC5)CC4)cc3F)ncc2Cl)n[nH]1 [Compound 118, (4-(4-(5-chloro-4-(5-methyl-1H-pyrazol-3-ylamino)pyrimidin-2-ylamino)-5-fluoro-2-methylphenyl)piperidin-1-yl)(1-methylpiperidin-4-yl)methanone] | 0.081
Cc1cc(Nc2nc(Nc3cc(C)c(C4CCN(C(=O)C5CNC5=O)CC4)cc3F)ncc2Cl)n[nH]1 (stereo not shown) [Compound 119, 3-(4-(4-(5-chloro-4-(5-methyl-1H-pyrazol-3-ylamino)pyrimidin-2-ylamino)-5-fluoro-2-methylphenyl)piperidine-1-carbonyl)azetidin-2-one] | 2.99
Cc1cc(Nc2nc(Nc3cc(C)c(C4CCN(C(=O)C5CN(C)C5)CC4)cc3C)ncc2Cl)n[nH]1 [Compound 120, (4-(4-(5-chloro-4-(5-methyl-1H-pyrazol-3-ylamino)pyrimidin-2-ylamino)-2,5-dimethylphenyl)piperidin-1-yl)(1-methylazetidin-3-yl)methanone] | 0.025
Cc1cc(Nc2nc(Nc3cc(C)c(C4CCN(C(=O)[C@@H]5CCCN5C)CC4)cc3C)ncc2Cl)n[nH]1 [Compound 121, (S)-(4-(4-(5-chloro-4-(5-methyl-1H-pyrazol-3-ylamino)pyrimidin-2-ylamino)-2,5-dimethylphenyl)piperidin-1-yl)(1-methylpyrrolidin-2-yl)methanone] | 0.017
Cc1cc(Nc2nc(Nc3cc(C)c(C4CCN(C(=O)[C@H]5C[C@@H](O)CN5C)CC4)cc3C)ncc2Cl)n[nH]1 [Compound 123, (4-(4-(5-chloro-4-(5-methyl-1H-pyrazol-3-ylamino)pyrimidin-2-ylamino)-2,5-dimethylphenyl)piperidin-1-yl)((2R,4R)-4-hydroxy-1-methylpyrrolidin-2-yl)methanone] | 0.048
Cc1cc(Nc2nc(Nc3cc(C)c(C4CCN(C(=O)c5ccc[nH]5)CC4)cc3F)ncc2Cl)n[nH]1 [Compound 124, (4-(4-(5-chloro-4-(5-methyl-1H-pyrazol-3-ylamino)pyrimidin-2-ylamino)-5-fluoro-2-methylphenyl)piperidin-1-yl)(1H-pyrrol-2-yl)methanone] | 0.145
Cc1cc(Nc2nc(Nc3cc(C)c(C4CCN(C(=O)[C@@H]5CCCCN5C(C)C)CC4)cc3F)ncc2Cl)n[nH]1 [Compound 125, (S)-(4-(4-(5-chloro-4-(5-methyl-1H-pyrazol-3-ylamino)pyrimidin-2-ylamino)-5-fluoro-2-methylphenyl)piperidin-1-yl)(1-isopropylpiperidin-2-yl)methanone] | 0.012
